Peptide text beside a SMILES is read from it.

This note sets out measurements from patent EP4001293A1, “TETRAPEPTIDE AND ITS USE” (Justus-Liebig-Universität Gießen, priority 2020, dated 2022).

Holding throughout (assay type): cell-based
The test system of assay [1] is SAOS-2-Zellen. Briefly: Stimulation of ossification, Alizarin red staining. An excerpt: Die Ausführungsbeispiele zeigen, dass die Tetrapeptide Seq ID 1-6 wenigstens die gleiche Wirksamkeit aufweisen wie Testosteron und die Testosteronanaloga. Dabei weisen sie als Tetrapeptide jedoch nicht die hormonbedingten Nebenwirkungen auf, da sie nur am membrangebundenen Androgenrezeptor ZIP-9 binden und nicht im Zellkern am klassischen Androgenrezeptor (AR). Eine besonders positive Wirkung kommt dem erfindungsgemäßen Tetrapeptid 1 Seq ID 1 zu. Die Wirksamkeit der erfindungsgemäßen Tetrapeptide Seq ID 1-6 zur Behandlung der Osteoporose, myodegenerativen Erkrankungen (zum Beispiel Muskeldystrophie, insbesondere jedoch Muskelatrophie) sowie der männlichen Infertilität wird experimentell in Zellkultur in einem charakteristischen Zellmodell gezeigt. Zur Verabreichung an Menschen und Tiere wird mindestens ein erfindungsgemäße Tetrapeptid als medizinisches Mittel in einer pharmazeutisch akzeptablen Komposition als Arzneimittel formuliert. Das medizinische Mittel wird zur Behandlung der Osteoporose, myodegenerativen Erkrankungen sowie der männlichen Infertilität bei Menschen und Tieren eingesetzt. Es löst dabei keine übermäßige Toxizität, Irritationen oder allergische Reaktionen aus. Bevorzugt wird das medizinische Mittel umfassend mindestens ein erfindungsgemäßes Tetrapeptid Menschen oder Tieren in Form entweder oral, intramuskulär, intraossär, rektal, parenteral, intravenös, subkutan, intracisternal, intravaginal, intraperitoneal, intrathekal, intravasculär, lokal (Puder, Salbe oder Tropfen), in Sprayform oder als Pflaster verabreicht. Dosierungsformen für die örtliche Administration des medizinischen Mittels dieser Erfindung schließen Salben, Puder, Sprays oder Inhalationsmittel ein. Das mindestens eine erfindungsgemäße Tetrapeptid als medizinisches Mittel wird unter sterilen Bedingungen mit einem physiologisch akzeptablen Trägerstoff und möglichen Konservierungsmitteln, Puffern oder Treibmitteln, je nach Bedarf, vermischt. Ein Konservierungsmittel ist eine Chemikalie, die zugesetzt wird, um die Zersetzung zu verhindern. Es hilft, das medizinische Mittel gegen Bakterien- und Pilzbefall oder Abbau durch Enzyme zu schützen, indem es das Wachstum von Bakterien oder Pilzen verhindern und/oder die Zersetzung des Mittels verlangsamt. Bevorzugt wird das medizinische Mittel dieser Erfindung als Lyophilisat hergestellt. Bevorzugt wird das medizinische Mittel dieser Erfindung oral verabreicht. Da das darin enthaltene mindestens eine Tetrapeptid sehr klein ist, wird es von proteolytischen Enzymen nicht so rasch abgebaut und kann seine Wirksamkeit am ZIP-9 Rezeptor sehr selektiv und sehr spezifisch entfalten. Die Tetrapeptide Seq ID 1-6 werden gemäß Verfahren, die der Fachmann kennt, einfach und mit geringen Kosten hergestellt. Sie weisen in lyophilisierter Form eine lange Lagerungsbeständigkeit und hohe Aktivität auf. Die Lagerung ist bei Raumtemperatur möglich. Ein Vorteil ist, dass aufgrund der hohen Spezifität nur geringe Mengen verabreicht werden müssen, um an den ZIP-9 Rezeptor zu binden und dort die positiven Effekte auszulösen. In einem besonderen Ausführungsbeispiel wird das Tetrapeptid Seq ID 1 verkapselt, damit es im Magen-Darm-Trakt nicht abgebaut (säure-hydrolysiert), sondern als Tetrapeptid in den Blutkreislauf aufgenommen wird. Dazu werden z.B. mesoporöse Silicapartikel verwendet, die die Bioverfügbarkeit verlängern. Alternativ werden an das Tetrapeptid Polymere angehängt, wie z.B. Polyethlenglycolgruppen (PEGylierung). […]

For assay [2], the system named is Alkalischen Phosphatase (ALP). The experiment in a line: Expression of alkaline phosphatase, immunofluorescence. The note with it: SAOS-2 Osteoblasten; for Expression der Alkalischen Phosphatase (grüne Fluoreszenz): Fig. 2A, 2B. An excerpt:
Die Ausführungsbeispiele zeigen, dass die Tetrapeptide Seq ID 1-6 wenigstens die gleiche Wirksamkeit aufweisen wie Testosteron und die Testosteronanaloga. Dabei weisen sie als Tetrapeptide jedoch nicht die hormonbedingten Nebenwirkungen auf, da sie nur am membrangebundenen Androgenrezeptor ZIP-9 binden und nicht im Zellkern am klassischen Androgenrezeptor (AR). Eine besonders positive Wirkung kommt dem erfindungsgemäßen Tetrapeptid 1 Seq ID 1 zu. Die Wirksamkeit der erfindungsgemäßen Tetrapeptide Seq ID 1-6 zur Behandlung der Osteoporose, myodegenerativen Erkrankungen (zum Beispiel Muskeldystrophie, insbesondere jedoch Muskelatrophie) sowie der männlichen Infertilität wird experimentell in Zellkultur in einem charakteristischen Zellmodell gezeigt. Zur Verabreichung an Menschen und Tiere wird mindestens ein erfindungsgemäße Tetrapeptid als medizinisches Mittel in einer pharmazeutisch akzeptablen Komposition als Arzneimittel formuliert. Das medizinische Mittel wird zur Behandlung der Osteoporose, myodegenerativen Erkrankungen sowie der männlichen Infertilität bei Menschen und Tieren eingesetzt. Es löst dabei keine übermäßige Toxizität, Irritationen oder allergische Reaktionen aus. Bevorzugt wird das medizinische Mittel umfassend mindestens ein erfindungsgemäßes Tetrapeptid Menschen oder Tieren in Form entweder oral, intramuskulär, intraossär, rektal, parenteral, intravenös, subkutan, intracisternal, intravaginal, intraperitoneal, intrathekal, intravasculär, lokal (Puder, Salbe oder Tropfen), in Sprayform oder als Pflaster verabreicht. Dosierungsformen für die örtliche Administration des medizinischen Mittels dieser Erfindung schließen Salben, Puder, Sprays oder Inhalationsmittel ein. Das mindestens eine erfindungsgemäße Tetrapeptid als medizinisches Mittel wird unter sterilen Bedingungen mit einem physiologisch akzeptablen Trägerstoff und möglichen Konservierungsmitteln, Puffern oder Treibmitteln, je nach Bedarf, vermischt. Ein Konservierungsmittel ist eine Chemikalie, die zugesetzt wird, um die Zersetzung zu verhindern. […]

Assay [3] has as its system Zonula Occludens-1 (ZO-1). The experiment in a line: Stimulation of ZO-1 expression, fluorescence measurement. The note with it: Sertoli-Zellen; Fig. 4B-4D. An excerpt:
Experimentell erfolgt die Quantifizierung der Stimulation der Bildung von ZO-1 in 93RS2 Sertoli-Zellen durch quantitative Auswertung der Messung der Expression von ZO-1. Der quantitative Messwert zur Beschreibung der Stimulation der Expression von ZO-1 ist die Häufigkeit (Frequenz), mit der mindestens ein bestimmter Wert ("Wert") der Fluoreszenzintensität gemessen wird. Die Bedeutung der Begriffe "Häufigkeit"/"Frequenz" und "Wert"/"Wert der Fluoreszenzintensität" ist dabei analog der Bedeutung im Zusammenhang mit der Alkalischen Phosphatase und bezieht sich hierbei auf Fig. 4F bzw. Fig. 4G bzw. Fig. 4H bzw. Fig. 4I. Die Häufigkeit des mindestens einen bestimmten Wertes der in den mit dem erfindungsgemäßen Tetrapeptid behandelten Zellen gemessenen Werte im direkten Vergleich mit der Häufigkeit des mindestens einen gleichen Wertes, die in Tetrapeptid-freien aber ansonsten gleich behandelten Kontrollzellen gemessen wird, beträgt ab dem Wert 70 mindestens 120 % der in den gleich behandelten Kontrollzellen gemessenen Häufigkeit ab dem Wert 70.
Die Durchführung des Färbevorganges erfolgt bei allen Proben (Referenz, Vergleichsprobe mit Testosteron und Tetrapeptid) in gleicher Weise, so dass die Farbstärke (erkennbar in der photographischen Darstellung in Fig. 1A und Fig. 1B anhand der Grauwerte in der jeweiligen Abbildung) als Maß für die Stimulierung dient (je dunkler der Grauwert, umso stärker die Stimulation zur Ossifikation). […] Dem Fachmann sind diese Zusammenhänge bekannt, ebenso weiß er wie Untersuchungen der Expression von Enzymen, und somit auch der ALP, quantitativ durchgeführt werden, so dass darauf hier nur allgemein eingegangen werden muss. […] Im Rahmen der vorliegenden Ausführungsbeispiele (Beispielmessungen) wurden alle dem Fachmann bekannten Parameter, beispielsweise Lösungsmittel- und Pufferzusammensetzungen sowie -Konzentrationen, Temperaturen, Geräteeinstellungen (z. B. für die Messung der Fluoreszenzstärke) usw. in geeigneten Grenzen konstant gehalten, so dass die Versuchsergebnisse die beschriebenen quantitativ-vergleichbaren relativen Ergebnisse liefern. […]

In another assay the test system is Myogenin. Briefly: Stimulation of myogenin formation, fluorescence measurement. The note with it: L6-Myoblasten; relative to control sample without tetrapeptide. The text has this:
(§1) Die Ausführungsbeispiele zeigen, dass die Tetrapeptide Seq ID 1-6 wenigstens die gleiche Wirksamkeit aufweisen wie Testosteron und die Testosteronanaloga. Dabei weisen sie als Tetrapeptide jedoch nicht die hormonbedingten Nebenwirkungen auf, da sie nur am membrangebundenen Androgenrezeptor ZIP-9 binden und nicht im Zellkern am klassischen Androgenrezeptor (AR). Eine besonders positive Wirkung kommt dem erfindungsgemäßen Tetrapeptid 1 Seq ID 1 zu. Die Wirksamkeit der erfindungsgemäßen Tetrapeptide Seq ID 1-6 zur Behandlung der Osteoporose, myodegenerativen Erkrankungen (zum Beispiel Muskeldystrophie, insbesondere jedoch Muskelatrophie) sowie der männlichen Infertilität wird experimentell in Zellkultur in einem charakteristischen Zellmodell gezeigt. Zur Verabreichung an Menschen und Tiere wird mindestens ein erfindungsgemäße Tetrapeptid als medizinisches Mittel in einer pharmazeutisch akzeptablen Komposition als Arzneimittel formuliert. Das medizinische Mittel wird zur Behandlung der Osteoporose, myodegenerativen Erkrankungen sowie der männlichen Infertilität bei Menschen und Tieren eingesetzt. Es löst dabei keine übermäßige Toxizität, Irritationen oder allergische Reaktionen aus. […]

The subject of assay [4] is L6-Myoblasten. The experiment in a line: Formation of myotubes (muscle fibres) from myoblasts. The note with it: 9 Stunden Inkubation, Fig. 3B.
Description: as §1

In the next assay the test system is Claudin-5. The experiment in a line: Stimulation of Claudin-5 formation, fluorescence measurement. The note with it: 93RS2 Sertoli-Zellen; relative to control sample without tetrapeptide. The text has this:
(§2) Die besondere Wirksamkeit von Tetrapeptid Seq ID 1 umfasst weiterhin die Stimulierung der Bildung von Claudin-1 und Claudin-5 in Zellen. Claudine sind kleine Transmembranproteine, die in vielen Organismen, Menschen und Tieren vorkommen und in ihrem Aufbau sehr ähnlich sind. Sie haben entscheidende Funktionen zur Bildung einer funktionierenden Barriere in verschiedenen Epithelien. Es gibt zahlreiche […] von Claudinen, die weitgehend ubiquitär exprimiert sind und Grundfunktionen für die Bildung der Tight-Junction-Bänder übernehmen. Caudin-1 und Claudin-5 sind spezialisierte Claudine, die an der Blut-Hoden-Schranke der männlichen Gonaden exprimiert werden. Ihre Beteiligung an der Ausbildung und Aufrechterhaltung der Tight Junctions an der Blut-Hoden-Schranke schützt die männlichen Keimzellen vor Angriffen des eigenen Immunsystems. Somit gehen Defekte der Blut-Hoden-Schranke immer mit Infertilität einher. […] Experimentell erfolgt die Quantifizierung der Stimulation der Bildung von Claudin-1 und/oder Claudin-5 in der Zelle durch Fluoreszenzmessung. Der quantitative Messwert zur Beschreibung der Stimulation der Bildung von Claudin-1 und/oder Claudin-5 in 93RS2 Sertoli-Zellen ist die Fluoreszenzintensität der mit dem Tetrapeptid behandelten Zellen bei mikroskopischer Betrachtung im direkten Vergleich mit einer gleichbehandelten Kontrollprobe ohne Tetrapeptid.

A further assay relates to Claudin-1. The experiment in a line: Stimulation of Claudin-1 formation, fluorescence measurement. The note with it: 93RS2 Sertoli-Zellen; relative to control sample without tetrapeptide.
Description: as §2

Assay [5] has as its system Fokalen Adhäsionskinase (FAK). Briefly: Stimulation/activation of focal adhesion kinase, fluorescence measurement. The note with it: L6-Myoblasten.
Description: as §1

Assay [6] concerns L6-Myoblasten. The experiment in a line: Formation of myotubes (muscle fibres) from myoblasts. The note with it: 9 Stunden Inkubation, Fig. 3B. The text has this: (§3) Zur Verabreichung an Menschen und Tiere wird mindestens ein erfindungsgemäße Tetrapeptid als medizinisches Mittel in einer pharmazeutisch akzeptablen Komposition als Arzneimittel formuliert. […] Bevorzugt wird das medizinische Mittel umfassend mindestens ein erfindungsgemäßes Tetrapeptid Menschen oder Tieren in Form entweder oral, intramuskulär, intraossär, rektal, parenteral, intravenös, subkutan, intracisternal, intravaginal, intraperitoneal, intrathekal, intravasculär, lokal (Puder, Salbe oder Tropfen), in Sprayform oder als Pflaster verabreicht. Dosierungsformen für die örtliche Administration des medizinischen Mittels dieser Erfindung schließen Salben, Puder, Sprays oder Inhalationsmittel ein. Das mindestens eine erfindungsgemäße Tetrapeptid als medizinisches Mittel wird unter sterilen Bedingungen mit einem physiologisch akzeptablen Trägerstoff und möglichen Konservierungsmitteln, Puffern oder Treibmitteln, je nach Bedarf, vermischt. Ein Konservierungsmittel ist eine Chemikalie, die zugesetzt wird, um die Zersetzung zu verhindern. […] Bevorzugt wird das medizinische Mittel dieser Erfindung als Lyophilisat hergestellt. Bevorzugt wird das medizinische Mittel dieser Erfindung oral verabreicht.
The source holds these as a separate data set.

Assay [7] concerns Fokalen Adhäsionskinase (FAK). The experiment in a line: Stimulation/activation of focal adhesion kinase, fluorescence measurement. The note with it: L6-Myoblasten; 6 Stunden Inkubation; versus reference sample; Fig. 3A.
Description: as §3

For assay [8], the system named is Alkalischen Phosphatase (ALP). Briefly: Expression of alkaline phosphatase, immunofluorescence. The note with it: SAOS-2 Osteoblasten; Fig. 2A, 2B.
Description: as §3

Assay [9] relates to SAOS-2-Zellen. Briefly: Stimulation of ossification, Alizarin red staining.
Description: as §3
This is another data set of the same source.

Take `CC(C)[C@H](NC(=O)CN)C(=O)N[C@@H](CO)C(=O)NCC(=O)O` [Peptid-2, GVSG] (H-GVSG-OH): the “Stimulierung der Ossifikation” value in the assay on SAOS-2-Zellen [1] (4 Tagen Inkubation, Fig. 1A) is on record as “Stimulierung der Ossifikation”; in the assay on SAOS-2-Zellen [1] (11 Tagen Inkubation, Fig. 1B), “Stimulierung der Ossifikation”. The “Expression der Alkalischen Phosphatase (grüne Fluoreszenz)” value (“Expression der Alkalischen Phosphatase” for short) in assay [2] is “Abnahme der grünen Fluoreszenz”. Moreover, the “Expression von Zonula occludens-1 (ZO-1)” value in assay [3] is recorded as “stimulierenden Wirkung”.

On to `CC[C@H](C)[C@H](N)C(=O)N[C@@H](C)C(=O)N1CCC[C@H]1C(=O)NCC(=O)O` [Peptid-1, IAPG] (H-IAPG-OH), for which the “Stimulierung der Ossifikation” value with SAOS-2-Zellen [1] (4 Tagen Inkubation, Fig. 1A) is “Stimulierung der Ossifikation”; in the assay with SAOS-2-Zellen [1] (11 Tagen Inkubation, Fig. 1B) it was “Stimulierung der Ossifikation”. Moreover, the “Farbstärke (Alizarinrot)” value with SAOS-2-Zellen [1] (relative to equally treated control sample without tetrapeptide) was “wenigstens den dreifachen Wert”. Moreover, the “Fluoreszenzintensität (Myogenin)” value with Myogenin was “wenigstens den dreifachen Wert”. The entries for the “Bildung von Myotuben (Muskelfasern)” value in the assay on L6-Myoblasten [4] and in the assay on L6-Myoblasten [4] (listed as Tetrapeptid Seq ID 1) were “Myotuben (= Muskelfasern) gebildet” and “die Muselfaserbildung stimuliert”, respectively. In assay [2], the “Expression der Alkalischen Phosphatase” value is on record as “Abnahme der grünen Fluoreszenz”. The “Häufigkeit (Frequenz) der Fluoreszenzintensität, Expression der ALP” value in [2] (ab dem Wert 65, % of frequency in tetrapeptide-free control cells) is at most 50%. The “Expression von Zonula occludens-1 (ZO-1)” value in assay [3] was “stimulierenden Wirkung”. Further, the “Fluoreszenzintensität (Claudin-5)” value with Claudin-5 is reported as “wenigstens den dreifachen Wert”. The “Fluoreszenzintensität (Claudin-1)” value in the assay on Claudin-1 is “wenigstens den dreifachen Wert”. For the same compound, the “grüne Fluoreszenz (FAK)” value in assay [5] (6 Stunden Inkubation, versus reference sample, Fig. 3A) is listed as “stärkere grüne Fluoreszenz”. Moreover, in assay [5] (relative to control sample without tetrapeptide), the “Fluoreszenzintensität (FAK)” value is listed as “wenigstens den dreifachen Wert”.

For the compound GWG [Peptid-3], the “Expression von Zonula occludens-1 (ZO-1)” value in [3] is “stimulierenden Wirkung”.

Take `C[C@]12CC[C@H]3[C@@H](CCC4=CC(=O)CC[C@@]43C)[C@@H]1CC[C@@H]2O` [Testosteron]: in the assay with L6-Myoblasten [6], the “Bildung von Myotuben (Muskelfasern)” value is recorded as “Myotuben (= Muskelfasern) gebildet”. Further, the “grüne Fluoreszenz (FAK)” value in [7] is “stärkere grüne Fluoreszenz”. Moreover, the “Expression der Alkalischen Phosphatase” value in assay [8] is “Abnahme der grünen Fluoreszenz”. Moreover, the “Stimulierung der Ossifikation” value is “Stimulierung der Ossifikation” in the assay on SAOS-2-Zellen [9] (4 Tagen Inkubation, Fig. 1A) and “Stimulierung der Ossifikation” in the assay with SAOS-2-Zellen [9] (11 Tagen Inkubation, Fig. 1B).
